Results as given in patent US8466195B2, “Methods and compositions for treating complications of diabetes and vascular diseases using flavones” (Salk Institute for Biological Studies, priority 2009, dated 2013).

What was measured:
Format in all cases: cell-based
HT22 cells = test: Oxidative glutamate toxicity (MTT cell viability); settings: Mus musculus, HT-22; 5 mM glutamate, 24 hours, MTT; read-out: EC50 oxid. glut. tox.
Experimental: Cell viability was determined by a modified version of 3-(4,5-dimethylthiazol-2-yl)-2,5-diphenyl tetrazolium bromide (MTT) assay based on the standard procedure (Hansen M B et al. J. Immunol. Methods 119:203-210, 1989). Briefly, cells were seeded onto 96-well microtiter plates at a density of 5×10^3 cells per well. The next day, the medium was replaced with DMEM supplemented with 7.5% DFCS and the cells were treated with the different fisetin derivatives alone or in the presence of 5 mM glutamate. Twenty four hours later, the medium in each well was aspirated and replaced with fresh medium containing 2.5 μg/ml MTT. After 4 hours of incubation at 37° C., cells were solubilized with 100 μA of a solution containing 50% dimethylformamide and 20% SDS (pH 4.7). The absorbance at 570 nm was measured on the following day with a microplate reader (Molecular Devices). Results obtained from the MTT assay correlated directly with the extent of cell death as confirmed visually. Controls employing wells without cells were used to determine the effects of the agents upon the assay chemistry.
As shown in panel (A) of FIG. 3, HT22 cells were untreated (ct) or treated with 10 μM fisetin (fis) in the absence of presence of 5 mM glutamate for 24 hr and GSH was measured enzymatically and normalized to protein. As shown in panel (B) of FIG. 3, HT22 cells in 96-well plates were treated with 5 mM glutamate and the indicated concentrations of fisetin. MTT reduction was measured after 24 hr.

[1] = tested on: cells treated with 20 μM iodoacetic acid (IAA); test: In vitro ischemia (iodoacetic acid, MTT cell viability); settings: 20 μM IAA 2 h, MTT 20 h later
Experimental: Briefly, cells were seeded onto 96-well microtiter plates at a density of 5×10^3 cells per well. The next day, the medium was replaced with DMEM supplemented with 7.5% DFCS and the cells were treated with 20 μM iodoacetic acid (IAA) alone or in the presence of the different fisetin derivatives. After 2 h the medium in each well was aspirated and replaced with fresh medium without IAA but containing the fisetin derivatives. 20 h later, the medium in each well was aspirated and replaced with fresh medium containing 2.5 μg/ml MTT. After 4 h of incubation at 37° C., cells were solubilized with 100 μl of a solution containing 50% dimethylformamide and 20% SDS (pH 4.7). The absorbance at 570 nm was measured on the following day with a microplate reader (Molecular Devices). Results obtained from the MTT assay correlated directly with the extent of cell death as confirmed visually. Controls included compound alone to test for toxicity and compound with no cells to test for interference with the assay chemistry.

HT-22 nerve cells = HT-22 nerve cells exposed to glutamate: MG adducts and viability
Experimental: HT-22 nerve cells were exposed to 0.5 mM glutamate and Glo-1 expression monitored at 8 and 24 hrs. In panel (B) of FIG. 2, Fisetin is shown to prevent both cell death and protein glycation. HT-22 cells were exposed to 5 mM glutamate in the presence or absence of 2 μM fisetin. MG adducts were determined by Western blotting 8 hrs after glutamate exposure and viability after 24 hrs. Actin is at the bottom of the blot. In panel (C) of FIG. 2, the Glo-1 inhibitor s-p-bromobenzylglutathione […] is shown to potentiate cell death. HT-22 cells were exposed to 1 mM glutamate plus or minus 10 or 20 μM BBGD.

SMILES | EC50 (HT22 cells) | EC50 [1] | toxicity in the absence of glutamate (HT-22 nerve cells; 20 μM BBGD, no glutamate) | cell death in the presence of glutamate (HT-22 nerve cells; 1 mM glutamate plus 10 or 20 μM BBGD)
CCOc1ccc(-c2oc3cc(OC)c(OC)cc3c(=O)c2O)cc1OCC | < 10 µM | > 1 µM | – | –
CCOc1ccc(-c2cc(=O)c3cc(C)c(C)cc3o2)cc1OCC | – | > 1 µM | – | –
COc1cc2oc(-c3ccc(O)c(O)c3)cc(=O)c2cc1OC | < 10 µM | < 1 µM | – | –
COc1cccc(-c2oc3cc(OC)c(OC)cc3c(=O)c2O)c1 | < 10 µM | 1 µM | – | –
CCOc1ccc(-c2oc3cc(C)c(C)cc3c(=O)c2O)cc1OCC | < 10 µM | < 1 µM | – | –
COc1cc2oc(-c3ccc(O)c(O)c3)c(O)c(=O)c2cc1OC | < 10 µM | > 1 µM | – | –
Cc1cc2oc(-c3ccc(O)c(O)c3)c(O)c(=O)c2cc1C | < 10 µM | < 1 µM | – | –
Cc1cc2oc(-c3ccc(O)c(O)c3)cc(=O)c2cc1C | < 10 µM | < 1 µM | – | –
O=c1cc(-c2ccc(O)c(O)c2)oc2cc(O)c(O)cc12 | > 10 µM | > 1 µM | – | –
O=c1c(O)c(-c2ccc(O)c(O)c2)oc2cc(O)c(O)cc12 | < 10 µM | > 1 µM | – | –
N[C@@H](CCC(=O)N[C@@H](CSCc1ccc(Br)cc1)C(=O)NCC(=O)O)C(=O)O [BBGD, s-p-bromobenzylglutathione, reference compound] | – | – | only mildly toxic | greatly potentiates cell death
O=c1c(O)c(-c2ccc(O)c(O)c2)oc2cc(O)ccc12 [drawing 10] | < 10 µM | > 1 µM | – | –
